# Source: patent publication US20260274892A1, “MACROCYCLIC BROAD SPECTRUM ANTIBIOTICS” (RQx Pharmaceuticals, Inc., priority 2017, published 2026)
# System: Escherichia coli ATCC 25922
# Assay: Minimum inhibitory concentration (MIC), CLSI broth micro-dilution, E. coli
# Type: cell-based
# Conditions: Escherichia coli
# Method in brief: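 Antibacterial potency is measured as MIC by the CLSI broth dilution method. Bacteria at OD600 0.0005 in Tween-80-supplemented cation-adjusted Mueller Hinton broth face ten twofold compound dilutions for 22 h at 35° C.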
# [1] = ATCC25922, Table 6, cation adjusted Mueller Hinton Broth + 0.002% Tween-80, 35° C., 22 hours
smiles,measurement,setting,value
"Cc1nc(-c2ccc(C(C)(C)C)cc2)nc(C)c1C(=O)N[C@@H](CCN)C(=O)N(C)[C@@H]1C(=O)N[C@@H](C)C(=O)N[C@H](C(=O)NCC#N)Cc2ccc(OCCN)c(c2)-c2cc1cc(NC(N)=O)c2OCCN (racemic) [Compound 622, rac-(8S,11S,14S)-3,18-bis(2-aminoethoxy)-N-(cyanomethyl)-11-methyl-14-[methyl-[rac-(2S)-4-amino-2-[[2-(4-tert-butylphenyl)-4,6-dimethyl-pyrimidine-5-carbonyl]amino]butanoyl]amino]-10,13-dioxo-17-ureido-9,12-diazatricyclo[13.3.1.12,6]icosa-1(18),2(20),3,5,15(19),16-hexaene-8-carboxamide]",MIC,"ATCC25922, Table 7, cation adjusted Mueller Hinton Broth + 0.002% Tween-80, 35° C., 22 hours",0.5 µM
"CC[C@H](NC(=O)c1c(C)nc(-c2ccc(OC3CCCCC3)cc2)nc1C)C(=O)N[C@@H](CCN)C(=O)N(C)[C@@H]1C(=O)N[C@@H](C)C(=O)N[C@H](C(=O)NCC#N)Cc2ccc(OCCN)c(c2)-c2cc1ccc2OCCN [Compound 510, (8S,11S,14S)-14-[[(2S)-4-amino-2-[[(2S)-2-[[2-[4-(cyclohexoxy)phenyl]-4,6-dimethyl-pyrimidine-5-carbonyl]amino]butanoyl]amino]butanoyl]-methyl-amino]-3,18-bis(2-aminoethoxy)-N-(cyanomethyl)-11-methyl-10,13-dioxo-9,12-diazatricyclo[13.3.1.12,6]icosa-1(18),2(20),3,5,15(19),16-hexaene-8-carboxamide]",MIC,[1],1.5 µM
"Cc1nc(N2CCC(OCCC(C)(C)C)CC2)nc(C)c1C(=O)N[C@@H](CCN)C(=O)N(C)[C@@H]1C(=O)N[C@@H](C)C(=O)N[C@H](C(=O)NCC#N)Cc2ccc(OCCN)c(c2)-c2cc1ccc2OCCN (racemic) [Compound 527, rac-(8S,11S,14S)-3,18-bis(2-aminoethoxy)-N-(cyanomethyl)-11-methyl-14-[methyl-[rac-(2S)-4-amino-2-[[2-[4-(3,3-dimethylbutoxy)-1-piperidyl]-4,6-dimethyl-pyrimidine-5-carbonyl]amino]butanoyl]amino]-10,13-dioxo-9,12-diazatricyclo[13.3.1.12,6]icosa-1(18),2(20),3,5,15(19),16-hexaene-8-carboxamide]",MIC,"ATCC25922, 22 h, Table 6, cation adjusted Mueller Hinton Broth + 0.002% Tween-80, 35° C.",0.38 µM
"Cc1nc(-c2ccc(C(C)(C)C)cc2F)nc(C)c1C(=O)N[C@@H](CCN)C(=O)N(C)[C@@H]1C(=O)N[C@@H](C)C(=O)N[C@H](C(=O)NCC#N)Cc2ccc(OCCN)c(c2)-c2cc1ccc2OCCN (racemic) [Compound 299, rac-(8S,11S,14S)-3,18-bis(2-aminoethoxy)-N-(cyanomethyl)-11-methyl-14-[methyl-[rac-(2S)-4-amino-2-[[2-(4-tert-butyl-2-fluoro-phenyl)-4,6-dimethyl-pyrimidine-5-carbonyl]amino]butanoyl]amino]-10,13-dioxo-9,12-diazatricyclo[13.3.1.12,6]icosa-1(18),2(20),3,5,15(19),16-hexaene-8-carboxamide]",MIC,[1],0.38 µM
"CCCCCOc1ccc(-c2nc(C)c(C(=O)N[C@@H](CCN)C(=O)N(C)[C@@H]3C(=O)N[C@@H](C)C(=O)N[C@H](C(=O)NCC#N)Cc4ccc(O)c(c4)-c4cc3ccc4OCCCN)c(C)n2)cc1 (racemic) [Compound 598, rac-(8S,11S,14S)-18-(3-aminopropoxy)-N-(cyanomethyl)-3-hydroxy-11-methyl-14-[methyl-[rac-(2S)-4-amino-2-[[4,6-dimethyl-2-(4-pentoxyphenyl)pyrimidine-5-carbonyl]amino]butanoyl]amino]-10,13-dioxo-9,12-diazatricyclo[13.3.1.12,6]icosa-1(18),2(20),3,5,15(19),16-hexaene-8-carboxamide]",MIC,"ATCC25922, 22 h, Table 7, cation adjusted Mueller Hinton Broth + 0.002% Tween-80, 35° C.",0.094 µM
